Target: T1, ITK (Homo sapiens, UniProt Q08881)
T1 construct: purchased Invitrogen PV3875
T1 sequence (Q08881 1-620): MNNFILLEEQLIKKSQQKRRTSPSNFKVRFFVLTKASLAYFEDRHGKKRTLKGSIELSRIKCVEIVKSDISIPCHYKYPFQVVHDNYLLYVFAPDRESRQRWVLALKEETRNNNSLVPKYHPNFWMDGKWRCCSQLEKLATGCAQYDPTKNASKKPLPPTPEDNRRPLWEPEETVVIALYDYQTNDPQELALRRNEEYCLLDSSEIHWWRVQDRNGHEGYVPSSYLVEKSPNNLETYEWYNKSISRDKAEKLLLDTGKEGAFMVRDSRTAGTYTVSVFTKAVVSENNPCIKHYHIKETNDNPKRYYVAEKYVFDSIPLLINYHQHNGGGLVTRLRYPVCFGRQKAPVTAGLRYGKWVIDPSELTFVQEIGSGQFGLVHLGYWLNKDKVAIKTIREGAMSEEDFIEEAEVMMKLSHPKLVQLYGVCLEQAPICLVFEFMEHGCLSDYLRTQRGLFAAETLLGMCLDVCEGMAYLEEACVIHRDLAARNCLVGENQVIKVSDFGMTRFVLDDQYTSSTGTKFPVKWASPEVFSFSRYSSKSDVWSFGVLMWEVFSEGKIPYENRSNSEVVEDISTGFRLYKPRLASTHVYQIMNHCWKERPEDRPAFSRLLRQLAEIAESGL
Assay: ITK enzyme assay (Caliper or LCMS peptide phosphorylation)
Assay type: biochemical
Settings: purified ITK (Invitrogen PV3875), 20 μM ATP, Ki by Morrison's quadratic equation
Summary of the method: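 Purified human ITK peptide phosphorylation, quenched with EDTA (50 mM final) for Caliper LabChip separation or TCA (5% v/v final) for UPLC-MS/MS MRM quantification. Ki derived via Morrison tight-binding equation, corrected for competitive inhibition using ATP concentration relative to Km,app.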

Ki [nM] | Structure (SMILES)
18 | CC1(C)CCc2c(C(=O)Nc3cnn(C(c4ccccc4)C(C)(C)O)c3)n[nH]c2C1 (single isomer, unassigned) [Example 55b, N-(1-(2-hydroxy-2-methyl-1-phenylpropyl)-1H-pyrazol-4-yl)-6,6-dimethyl-4,5,6,7-tetrahydro-1H-indazole-3-carboxamide]
9 | CCC1(C)CCc2c(C(=O)Nc3cnn(Cc4ccccc4)c3)n[nH]c2C1 (single isomer, unassigned) [Example 56a, N-(1-benzyl-1H-pyrazol-4-yl)-6-ethyl-6-methyl-4,5,6,7-tetrahydro-1H-indazole-3-carboxamide]
13 | CCC1(C)CCc2c(C(=O)Nc3cnn(Cc4ccccc4)c3)n[nH]c2C1 (single isomer, unassigned) [Example 56b, N-(1-benzyl-1H-pyrazol-4-yl)-6-ethyl-6-methyl-4,5,6,7-tetrahydro-1H-indazole-3-carboxamide]
2 | CC1(C)CCc2c(C(=O)Nc3cnn(C(CN4CCC4)c4ccccc4)c3)n[nH]c2C1 (single isomer, unassigned) [Example 57a, N-(1-(2-(azetidin-1-yl)-1-phenylethyl)-1H-pyrazol-4-yl)-6,6-dimethyl-4,5,6,7-tetrahydro-1H-indazole-3-carboxamide]
12 | CC1(C)CCc2c(C(=O)Nc3cnn(C(CN4CCC4)c4ccccc4)c3)n[nH]c2C1 (single isomer, unassigned) [Example 57b, N-(1-(2-(azetidin-1-yl)-1-phenylethyl)-1H-pyrazol-4-yl)-6,6-dimethyl-4,5,6,7-tetrahydro-1H-indazole-3-carboxamide]
1 | CC1(C)CCc2c(C(=O)Nc3cnn(C(c4ccccc4)[C@@H]4CNCCO4)c3)n[nH]c2C1 (single isomer, unassigned) [Example 66b]
0.2 | CN(C)CC(c1ccccc1)n1cc(NC(=O)c2n[nH]c3c2CC2CC2(C)C3)cn1 (single isomer, unassigned) [Example 68a, N-(1-(2-(dimethylamino)-1-phenylethyl)-1H-pyrazol-4-yl)-5a-methyl-1,4,4a,5,5a,6-hexahydrocyclopropa[f]indazole-3-carboxamide]
4 | CN(C)CC(c1ccccc1)n1cc(NC(=O)c2n[nH]c3c2CC2CC2(C)C3)cn1 (single isomer, unassigned) [Example 68b, N-(1-(2-(dimethylamino)-1-phenylethyl)-1H-pyrazol-4-yl)-5a-methyl-1,4,4a,5,5a,6-hexahydrocyclopropa[f]indazole-3-carboxamide]
11 | CC1(C)Cc2[nH]nc(C(=O)Nc3cnn(Cc4ccccc4)c3)c2CC1O (single isomer, unassigned) [Example 70a, N-(1-benzyl-1H-pyrazol-4-yl)-5-hydroxy-6,6-dimethyl-4,5,6,7-tetrahydro-1H-indazole-3-carboxamide]
7 | CC1(C)Cc2[nH]nc(C(=O)Nc3cnn(Cc4ccccc4)c3)c2CC1O (single isomer, unassigned) [Example 70b, N-(1-benzyl-1H-pyrazol-4-yl)-5-hydroxy-6,6-dimethyl-4,5,6,7-tetrahydro-1H-indazole-3-carboxamide]
2 | CC1(C)CCc2c(C(=O)Nc3cnn(C(c4ccccc4)C4CN(CCF)C4)c3)n[nH]c2C1 (single isomer, unassigned) [Example 75a, N-(1-((1-(2-fluoroethyl)azetidin-3-yl)(phenyl)methyl)-1H-pyrazol-4-yl)-6,6-dimethyl-4,5,6,7-tetrahydro-1H-indazole-3-carboxamide]

Second part, the compound before the results:

Structure (SMILES) | Ki [nM]
CN(CCC(c1ccccc1)n1cc(NC(=O)c2n[nH]c3c2CCC(C)(C)C3)cn1)C1COC1 (single isomer, unassigned) [Example 58a, 6,6-dimethyl-N-(1-(3-(methyl(oxetan-3-yl)amino)-1-phenylpropyl)-1H-pyrazol-4-yl)-4,5,6,7-tetrahydro-1H-indazole-3-carboxamide] | 7
CN(CCC(c1ccccc1)n1cc(NC(=O)c2n[nH]c3c2CCC(C)(C)C3)cn1)C1COC1 (single isomer, unassigned) [Example 58b, 6,6-dimethyl-N-(1-(3-(methyl(oxetan-3-yl)amino)-1-phenylpropyl)-1H-pyrazol-4-yl)-4,5,6,7-tetrahydro-1H-indazole-3-carboxamide] | 0.6
CN(CC(c1ccccc1)n1cc(NC(=O)c2n[nH]c3c2CCC(C)(C)C3)cn1)S(C)(=O)=O (single isomer, unassigned) [Example 61a, 6,6-dimethyl-N-(1-(2-(N-methylmethylsulfonamido)-1-phenylethyl)-1H-pyrazol-4-yl)-4,5,6,7-tetrahydro-1H-indazole-3-carboxamide] | 5
CN(CC(c1ccccc1)n1cc(NC(=O)c2n[nH]c3c2CCC(C)(C)C3)cn1)S(C)(=O)=O (single isomer, unassigned) [Example 61b, 6,6-dimethyl-N-(1-(2-(N-methylmethylsulfonamido)-1-phenylethyl)-1H-pyrazol-4-yl)-4,5,6,7-tetrahydro-1H-indazole-3-carboxamide] | 1
CC1(C)CCc2c(C(=O)Nc3cnn(C(CN4CCOCC4)c4ccccc4)c3)n[nH]c2C1 (single isomer, unassigned) [Example 62a, 6,6-dimethyl-N-(1-(2-morpholino-1-phenylethyl)-1H-pyrazol-4-yl)-4,5,6,7-tetrahydro-1H-indazole-3-carboxamide] | 3
CC1(C)CCc2c(C(=O)Nc3cnn(C(CN4CCOCC4)c4ccccc4)c3)n[nH]c2C1 (single isomer, unassigned) [Example 62b, 6,6-dimethyl-N-(1-(2-morpholino-1-phenylethyl)-1H-pyrazol-4-yl)-4,5,6,7-tetrahydro-1H-indazole-3-carboxamide] | 16
CC1(C)CCc2c(C(=O)Nc3cnn(C(c4ccccc4)C4CCN(CCF)CC4)c3)n[nH]c2C1 (single isomer, unassigned) [Example 63a, N-(1-((1-(2-fluoroethyl)piperidin-4-yl)(phenyl)methyl)-1H-pyrazol-4-yl)-6,6-dimethyl-4,5,6,7-tetrahydro-1H-indazole-3-carboxamide] | 0.1
CC1(C)CCc2c(C(=O)Nc3cnn(C(c4ccccc4)C4CCN(CCF)CC4)c3)n[nH]c2C1 (single isomer, unassigned) [Example 63b, N-(1-((1-(2-fluoroethyl)piperidin-4-yl)(phenyl)methyl)-1H-pyrazol-4-yl)-6,6-dimethyl-4,5,6,7-tetrahydro-1H-indazole-3-carboxamide] | 1
CC1(C)CCc2c(C(=O)Nc3cnn(C(c4ccccc4)[C@@H]4CNCCO4)c3)n[nH]c2C1 (single isomer, unassigned) [Example 66a] | 0.3
CC1(C)CCc2c(C(=O)Nc3cnn(C(c4ccccc4)C4CCN(S(C)(=O)=O)CC4)c3)n[nH]c2C1 (single isomer, unassigned) [Example 67a, 6,6-dimethyl-N-(1-((1-(methylsulfonyl)piperidin-4-yl)(phenyl)methyl)-1H-pyrazol-4-yl)-4,5,6,7-tetrahydro-1H-indazole-3-carboxamide] | 0.2
CC1(C)CCc2c(C(=O)Nc3cnn(C(c4ccccc4)C4CCN(S(C)(=O)=O)CC4)c3)n[nH]c2C1 (single isomer, unassigned) [Example 67b, 6,6-dimethyl-N-(1-((1-(methylsulfonyl)piperidin-4-yl)(phenyl)methyl)-1H-pyrazol-4-yl)-4,5,6,7-tetrahydro-1H-indazole-3-carboxamide] | 3
CC1(C)CCc2c(C(=O)Nc3cnn(C(CS(C)(=O)=O)c4cccnc4)c3)n[nH]c2C1 (single isomer, unassigned) [Example 73a, 6,6-dimethyl-N-(1-(2-(methylsulfonyl)-1-(pyridin-3-yl)ethyl)-1H-pyrazol-4-yl)-4,5,6,7-tetrahydro-1H-indazole-3-carboxamide] | 0.7
CC1(C)CCc2c(C(=O)Nc3cnn(C(CS(C)(=O)=O)c4cccnc4)c3)n[nH]c2C1 (single isomer, unassigned) [Example 73b, 6,6-dimethyl-N-(1-(2-(methylsulfonyl)-1-(pyridin-3-yl)ethyl)-1H-pyrazol-4-yl)-4,5,6,7-tetrahydro-1H-indazole-3-carboxamide] | 7
CC1(C)CCc2c(C(=O)Nc3cnn(C(c4cccnc4)C4CCS(=O)(=O)CC4)c3)n[nH]c2C1 (single isomer, unassigned) [Example 74a, N-(1-((1,1-dioxidotetrahydro-2H-thiopyran-4-yl)(pyridin-3-yl)methyl)-1H-pyrazol-4-yl)-6,6-dimethyl-4,5,6,7-tetrahydro-1H-indazole-3-carboxamide] | 0.2
CC1(C)CCc2c(C(=O)Nc3cnn(C(c4cccnc4)C4CCS(=O)(=O)CC4)c3)n[nH]c2C1 (single isomer, unassigned) [Example 74b, N-(1-((1,1-dioxidotetrahydro-2H-thiopyran-4-yl)(pyridin-3-yl)methyl)-1H-pyrazol-4-yl)-6,6-dimethyl-4,5,6,7-tetrahydro-1H-indazole-3-carboxamide] | 3

Reference: patent US20160326142A1, “PYRAZOLE CARBOXAMIDE COMPOUNDS, COMPOSITIONS AND METHODS OF USE” (Genentech, Inc., priority 2012, published 2016)
